The target in assay [1] is Cyclin-dependent kinase 8 (Homo sapiens) (UniProt P49336). In words: Inhibition of CDK8 (unknown origin) at 1 uM by Ambit Kinomescan binding assay relative to control.
For assay [2], the target named is T1, Mixed lineage kinase domain-like protein (Homo sapiens) (UniProt Q8NB16).
T1 sequence (whole entry): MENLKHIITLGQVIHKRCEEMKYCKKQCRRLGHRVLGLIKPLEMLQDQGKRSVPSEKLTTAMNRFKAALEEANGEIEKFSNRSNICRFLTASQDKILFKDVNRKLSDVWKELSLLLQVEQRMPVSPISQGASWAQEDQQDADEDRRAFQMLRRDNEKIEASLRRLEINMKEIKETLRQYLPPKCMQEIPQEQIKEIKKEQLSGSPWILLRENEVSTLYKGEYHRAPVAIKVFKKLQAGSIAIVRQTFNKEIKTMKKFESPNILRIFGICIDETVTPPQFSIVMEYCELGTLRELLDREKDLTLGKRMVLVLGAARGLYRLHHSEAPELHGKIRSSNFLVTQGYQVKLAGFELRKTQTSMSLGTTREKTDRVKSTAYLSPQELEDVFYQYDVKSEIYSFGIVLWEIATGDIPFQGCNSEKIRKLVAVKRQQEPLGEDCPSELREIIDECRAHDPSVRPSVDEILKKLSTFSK
The assay is described as follows: Inhibition of MLKL Lys1 labeling site in human A-375 cells at 5 uM by KiNativ Profiling analysis relative to control. Format: cell-based.

The target in assay [3] is Macrophage-stimulating protein receptor (Homo sapiens) (UniProt Q04912). In words: Inhibition of MST1R (unknown origin) at 10 uM by Ambit Kinomescan binding assay.
Assay [4] has as its target Phosphatidylinositol 4-phosphate 3-kinase C2 domain-containing subunit beta (Homo sapiens) (UniProt O00750). The assay is described as follows: Inhibition of PIK3C2B (unknown origin) at 10 uM by Ambit Kinomescan binding assay.
Assay [5] has as its target Serine/threonine-protein kinase tousled-like 2 (Homo sapiens) (UniProt Q86UE8). The assay is described as follows: Inhibition of TLK2 (unknown origin) at 10 uM by Ambit Kinomescan binding assay.
The target of assay [6] is Non-receptor tyrosine-protein kinase TYK2 (Homo sapiens) (UniProt P29597). The assay is described as follows: Inhibition of TYK2 domain2 ACT labeling site in human A-375 cells at 5 uM by KiNativ Profiling analysis relative to control. Format: cell-based.
Assay [7] addresses T2, Mitogen-activated protein kinase kinase kinase 5 (Homo sapiens) (UniProt Q99683).
T2 sequence (whole entry): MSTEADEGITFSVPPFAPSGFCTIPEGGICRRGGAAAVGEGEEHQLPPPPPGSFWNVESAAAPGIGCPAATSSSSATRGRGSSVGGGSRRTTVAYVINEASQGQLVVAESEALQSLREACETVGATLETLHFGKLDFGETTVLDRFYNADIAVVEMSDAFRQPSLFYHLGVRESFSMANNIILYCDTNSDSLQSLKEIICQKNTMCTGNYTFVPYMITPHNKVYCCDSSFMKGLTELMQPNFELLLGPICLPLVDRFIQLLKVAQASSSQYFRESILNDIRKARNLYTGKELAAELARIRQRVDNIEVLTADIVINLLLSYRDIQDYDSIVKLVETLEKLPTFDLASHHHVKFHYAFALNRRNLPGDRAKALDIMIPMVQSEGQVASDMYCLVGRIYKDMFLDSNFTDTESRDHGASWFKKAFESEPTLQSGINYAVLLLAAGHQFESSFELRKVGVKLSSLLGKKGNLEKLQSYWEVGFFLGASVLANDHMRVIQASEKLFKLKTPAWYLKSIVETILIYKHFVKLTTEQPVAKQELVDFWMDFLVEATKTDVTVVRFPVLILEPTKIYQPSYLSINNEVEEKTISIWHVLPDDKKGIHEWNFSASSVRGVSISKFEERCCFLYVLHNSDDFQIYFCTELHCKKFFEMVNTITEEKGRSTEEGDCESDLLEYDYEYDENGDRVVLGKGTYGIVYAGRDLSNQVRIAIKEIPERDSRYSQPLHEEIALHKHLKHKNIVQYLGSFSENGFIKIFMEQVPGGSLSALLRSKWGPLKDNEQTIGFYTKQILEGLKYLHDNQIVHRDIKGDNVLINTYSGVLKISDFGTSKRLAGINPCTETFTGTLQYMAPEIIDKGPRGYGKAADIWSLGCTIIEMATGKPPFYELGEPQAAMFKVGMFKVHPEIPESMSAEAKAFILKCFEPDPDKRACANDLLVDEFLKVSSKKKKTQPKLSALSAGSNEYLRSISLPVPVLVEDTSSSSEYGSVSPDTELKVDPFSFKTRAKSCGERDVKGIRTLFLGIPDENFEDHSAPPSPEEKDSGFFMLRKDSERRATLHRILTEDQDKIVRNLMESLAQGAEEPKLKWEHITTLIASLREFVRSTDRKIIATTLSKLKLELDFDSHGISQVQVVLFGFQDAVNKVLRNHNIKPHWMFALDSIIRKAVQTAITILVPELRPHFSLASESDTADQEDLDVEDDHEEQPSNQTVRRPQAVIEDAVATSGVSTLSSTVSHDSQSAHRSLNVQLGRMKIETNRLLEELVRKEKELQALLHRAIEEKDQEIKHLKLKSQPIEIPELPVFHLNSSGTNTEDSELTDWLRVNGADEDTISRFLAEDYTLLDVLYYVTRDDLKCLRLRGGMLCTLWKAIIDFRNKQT
In words: Inhibition of MAP3K5 Lys1 labeling site harbouring IAIKEIPER in human A-375 cells at 0.05 uM by KiNativ Profiling analysis relative to control. It is filed as cell-based.

Assay [8] deals with 1-phosphatidylinositol 3-phosphate 5-kinase (Homo sapiens) (UniProt Q9Y2I7). The assay is described as follows: Inhibition of PIP5K3 ATP labeling site in human Huh-7 cells at 10 uM by KiNativ Profiling analysis relative to control. It is filed as cell-based.
Assay [9] is described as follows: Inhibition of Wnk1/2/3 K2 labeling site in human Huh-7 cells at 1 uM by KiNativ Profiling analysis relative to control. The settings on record: condition cancer.
For assay [10], the target named is Cyclin-dependent kinase 8 (Homo sapiens) (UniProt P49336). In words: Inhibition of CDK8 (unknown origin) at 10 uM by Ambit Kinomescan binding assay relative to control; values are per cent of control.
A short description of assay [11]: Inhibition of p70S6K Lys2 labeling site in human Huh-7 cell lysate at 1 uM by KiNativ Profiling analysis relative to control. The settings on record: condition cancer.

SMILES strings stand for the structures. The source made the active and inactive calls. No cut-off for these calls is given here.

Broadly, the inhibition is the change of the read-out against control, counted positive when it falls.

Cyclin-dependent kinase 8 (Homo sapiens), sequence (P49336 whole entry, the tested form may be a part): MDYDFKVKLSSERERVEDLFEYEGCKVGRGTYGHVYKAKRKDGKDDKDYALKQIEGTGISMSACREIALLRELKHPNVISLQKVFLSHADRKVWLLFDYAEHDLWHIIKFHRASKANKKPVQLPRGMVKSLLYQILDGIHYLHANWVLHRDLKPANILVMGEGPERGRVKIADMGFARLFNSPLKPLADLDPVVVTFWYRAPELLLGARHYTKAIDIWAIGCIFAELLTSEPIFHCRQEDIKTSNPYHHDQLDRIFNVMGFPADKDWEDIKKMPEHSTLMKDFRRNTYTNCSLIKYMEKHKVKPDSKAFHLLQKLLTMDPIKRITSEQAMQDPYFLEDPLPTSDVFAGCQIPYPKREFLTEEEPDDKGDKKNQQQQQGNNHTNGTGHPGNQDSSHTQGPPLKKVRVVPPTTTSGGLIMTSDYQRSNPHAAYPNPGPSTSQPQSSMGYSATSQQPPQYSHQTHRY
Phosphatidylinositol 4-phosphate 3-kinase C2 domain-containing subunit beta (Homo sapiens), sequence (O00750 whole entry, the tested form may be a part): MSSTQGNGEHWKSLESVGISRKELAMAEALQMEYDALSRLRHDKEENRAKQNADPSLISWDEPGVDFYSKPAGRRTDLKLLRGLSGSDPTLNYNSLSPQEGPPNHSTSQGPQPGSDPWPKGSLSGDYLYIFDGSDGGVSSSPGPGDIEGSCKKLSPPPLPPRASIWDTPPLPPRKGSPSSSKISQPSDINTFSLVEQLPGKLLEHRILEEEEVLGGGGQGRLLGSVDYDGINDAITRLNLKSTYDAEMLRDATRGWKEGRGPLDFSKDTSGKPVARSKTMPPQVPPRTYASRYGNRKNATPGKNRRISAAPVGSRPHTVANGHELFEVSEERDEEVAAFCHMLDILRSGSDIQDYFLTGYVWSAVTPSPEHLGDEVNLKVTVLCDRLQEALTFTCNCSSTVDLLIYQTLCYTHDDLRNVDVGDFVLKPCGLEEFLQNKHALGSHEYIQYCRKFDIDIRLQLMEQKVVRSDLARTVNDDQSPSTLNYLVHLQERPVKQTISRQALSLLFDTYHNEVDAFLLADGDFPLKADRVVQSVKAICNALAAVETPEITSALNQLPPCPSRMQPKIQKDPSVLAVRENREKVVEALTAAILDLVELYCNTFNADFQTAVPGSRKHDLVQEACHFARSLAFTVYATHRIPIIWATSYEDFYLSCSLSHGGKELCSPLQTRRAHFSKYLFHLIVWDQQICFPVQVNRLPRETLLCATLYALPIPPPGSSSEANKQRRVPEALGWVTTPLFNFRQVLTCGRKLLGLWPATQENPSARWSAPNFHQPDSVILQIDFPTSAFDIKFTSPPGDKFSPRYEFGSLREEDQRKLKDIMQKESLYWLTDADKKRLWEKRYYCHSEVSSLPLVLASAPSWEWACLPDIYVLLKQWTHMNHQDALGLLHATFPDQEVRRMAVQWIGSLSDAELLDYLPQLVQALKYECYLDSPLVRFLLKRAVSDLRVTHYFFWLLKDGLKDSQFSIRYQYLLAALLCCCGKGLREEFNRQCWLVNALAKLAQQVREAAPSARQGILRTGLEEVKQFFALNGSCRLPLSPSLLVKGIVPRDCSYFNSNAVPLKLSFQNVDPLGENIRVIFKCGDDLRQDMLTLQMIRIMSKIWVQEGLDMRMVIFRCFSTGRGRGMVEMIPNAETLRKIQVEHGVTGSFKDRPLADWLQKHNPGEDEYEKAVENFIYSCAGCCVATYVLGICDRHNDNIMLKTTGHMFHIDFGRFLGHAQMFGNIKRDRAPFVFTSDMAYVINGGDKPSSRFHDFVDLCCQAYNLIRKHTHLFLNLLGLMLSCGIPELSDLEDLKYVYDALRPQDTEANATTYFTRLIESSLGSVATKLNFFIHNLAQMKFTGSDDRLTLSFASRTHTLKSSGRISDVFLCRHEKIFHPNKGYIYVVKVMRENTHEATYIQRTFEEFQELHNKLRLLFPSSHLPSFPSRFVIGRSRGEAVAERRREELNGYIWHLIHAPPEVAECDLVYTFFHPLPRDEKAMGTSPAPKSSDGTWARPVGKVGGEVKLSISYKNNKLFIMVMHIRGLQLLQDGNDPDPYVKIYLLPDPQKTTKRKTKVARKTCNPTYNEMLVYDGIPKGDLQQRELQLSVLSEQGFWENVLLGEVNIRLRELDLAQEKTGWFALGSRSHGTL
Non-receptor tyrosine-protein kinase TYK2 (Homo sapiens), sequence (P29597 whole entry, the tested form may be a part): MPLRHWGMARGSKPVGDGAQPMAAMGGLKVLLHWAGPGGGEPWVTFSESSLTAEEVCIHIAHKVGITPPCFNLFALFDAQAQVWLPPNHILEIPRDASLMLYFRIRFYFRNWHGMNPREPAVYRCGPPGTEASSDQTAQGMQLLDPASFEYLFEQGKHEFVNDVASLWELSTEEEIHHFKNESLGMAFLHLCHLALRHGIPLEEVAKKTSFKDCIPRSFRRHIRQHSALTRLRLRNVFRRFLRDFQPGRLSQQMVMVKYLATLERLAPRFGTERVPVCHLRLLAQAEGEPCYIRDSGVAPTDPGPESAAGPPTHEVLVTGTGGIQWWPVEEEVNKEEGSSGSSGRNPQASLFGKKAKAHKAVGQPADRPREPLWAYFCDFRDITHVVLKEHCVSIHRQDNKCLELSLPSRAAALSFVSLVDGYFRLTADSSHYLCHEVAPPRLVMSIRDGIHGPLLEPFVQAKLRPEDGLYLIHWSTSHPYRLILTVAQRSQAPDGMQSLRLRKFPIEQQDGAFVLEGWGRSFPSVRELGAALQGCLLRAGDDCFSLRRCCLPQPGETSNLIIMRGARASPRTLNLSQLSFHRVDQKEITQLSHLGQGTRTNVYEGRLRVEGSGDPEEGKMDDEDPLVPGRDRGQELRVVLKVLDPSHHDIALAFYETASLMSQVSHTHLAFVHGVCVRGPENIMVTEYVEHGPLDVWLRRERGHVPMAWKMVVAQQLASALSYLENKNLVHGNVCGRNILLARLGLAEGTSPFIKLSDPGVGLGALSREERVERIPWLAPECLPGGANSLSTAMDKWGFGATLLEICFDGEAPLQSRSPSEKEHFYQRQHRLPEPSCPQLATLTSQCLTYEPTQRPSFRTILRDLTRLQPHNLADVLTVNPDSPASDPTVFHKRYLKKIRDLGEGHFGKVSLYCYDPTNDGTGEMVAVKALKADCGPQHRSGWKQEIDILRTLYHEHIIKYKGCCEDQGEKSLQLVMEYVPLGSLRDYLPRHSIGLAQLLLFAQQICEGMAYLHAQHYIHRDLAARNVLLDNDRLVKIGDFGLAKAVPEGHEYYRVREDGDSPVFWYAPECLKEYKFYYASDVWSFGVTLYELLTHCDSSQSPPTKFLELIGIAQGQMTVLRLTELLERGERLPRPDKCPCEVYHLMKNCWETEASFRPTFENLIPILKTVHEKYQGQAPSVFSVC
Serine/threonine-protein kinase tousled-like 2 (Homo sapiens), sequence (Q86UE8 whole entry, looked up, the tested form may be a part): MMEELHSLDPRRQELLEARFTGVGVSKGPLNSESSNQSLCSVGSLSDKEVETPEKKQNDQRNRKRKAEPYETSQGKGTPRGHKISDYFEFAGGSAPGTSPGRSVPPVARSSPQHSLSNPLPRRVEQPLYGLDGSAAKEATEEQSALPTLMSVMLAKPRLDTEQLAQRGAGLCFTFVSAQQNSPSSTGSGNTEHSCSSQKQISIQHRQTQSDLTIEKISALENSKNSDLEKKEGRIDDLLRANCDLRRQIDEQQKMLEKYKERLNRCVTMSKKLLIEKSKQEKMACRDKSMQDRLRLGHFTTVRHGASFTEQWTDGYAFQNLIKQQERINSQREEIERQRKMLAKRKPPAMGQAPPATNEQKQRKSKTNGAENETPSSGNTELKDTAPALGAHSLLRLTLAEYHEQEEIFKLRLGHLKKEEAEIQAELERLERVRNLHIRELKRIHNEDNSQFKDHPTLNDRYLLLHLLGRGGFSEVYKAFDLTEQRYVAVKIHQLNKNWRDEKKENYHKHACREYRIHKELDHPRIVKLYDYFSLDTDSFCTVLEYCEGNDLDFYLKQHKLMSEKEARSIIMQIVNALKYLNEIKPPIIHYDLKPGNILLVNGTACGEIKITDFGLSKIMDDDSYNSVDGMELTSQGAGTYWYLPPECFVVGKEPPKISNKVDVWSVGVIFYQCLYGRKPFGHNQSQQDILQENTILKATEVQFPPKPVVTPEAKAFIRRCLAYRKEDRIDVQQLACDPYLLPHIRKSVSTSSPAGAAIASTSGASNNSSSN

As for `CCN1CCN(Cc2ccc(NC(=O)c3ccc(C)c(/C=C/c4cnc5[nH]ccc5c4OC)c3)cc2C(F)(F)F)CC1`, the inhibition in [1] amounted to 25%; in [2] it was 3.2%.

Regarding `CCN1CCN(Cc2ccc(NC(=O)c3ccc(C)c(Oc4ccnc5[nH]ccc45)c3)cc2C(F)(F)F)CC1`, the inhibition result in [3], in assay [4] and in [5] was “inactive” each time. Also, the figures for the inhibition in assay [6], in assay [7] and in [8] were 50.1%, 10.8% and 13.8%, respectively. In addition, the inhibition at 1 µM in assay [9] is -17.1%. Moreover, the percent of control in assay [10] worked out at 3.9%.

In the case of `CNc1cc(Oc2cc(C(=O)Nc3cc(N4CCN(C)CC4)cc(C(F)(F)F)c3)ccc2C)ncn1`, the inhibition at 1 µM in [11] came to 4.9%.

The values are drawn from ChEMBL document CHEMBL5696442, “Discovery of type II inhibitors of TGFβ-activated kinase 1 (TAK1) and mitogen-activated protein kinase kinase kinase kinase 2 (MAP4K2)” (J Med Chem, 2015).
